Laboratory results reported in ChEMBL document CHEMBL5058564, “EUbOPEN Chemogenomics Library 2 (Incucyte)” (2022).

Experiments:
Type in all cases: toxicity, cell-based
Fibroblast = experiment: Incucyte cell viability with human fibroblast; conditions: 10 µM, compound concentration 10 uM
U2OS = experiment: Incucyte cell viability with U2OS; conditions: human, 10 µM, compound concentration 10 uM
HEK-293T = experiment: Incucyte cell viability with HEK293T; conditions: human, 10 µM, compound concentration 10 uM
[1] = 6 h, replicate number 1, timepoint 6 hours
[2] = 6 h, replicate number 2, timepoint 6 hours
[3] = 12 h, replicate number 1, timepoint 12 hours
[4] = 12 h, replicate number 2, timepoint 12 hours
[5] = 18 h, replicate number 1, timepoint 18 hours
[6] = 18 h, replicate number 2, timepoint 18 hours
[7] = 24 h, replicate number 1, timepoint 24 hours
[8] = 24 h, replicate number 2, timepoint 24 hours
[9] = 0 h, replicate number 2, timepoint 0 hours
[10] = 0 h, replicate number 1, timepoint 0 hours
Also: unitless GR value; below 1 slowed growth and below 0 cell loss.

Structure (SMILES)	Growth Rate (Fibroblast; [1])	Growth Rate (Fibroblast; [2])	Growth Rate (Fibroblast; [3])	Growth Rate (Fibroblast; [4])	Growth Rate (Fibroblast; [5])	Growth Rate (Fibroblast; [6])	Growth Rate (Fibroblast; [7])	Growth Rate (Fibroblast; [8])	Growth Rate (U2OS; [1])	Growth Rate (U2OS; [3])	Growth Rate (U2OS; [4])	Growth Rate (U2OS; [5])	Growth Rate (U2OS; [6])	Growth Rate (U2OS; [7])	Growth Rate (HEK-293T; [1])	Growth Rate (HEK-293T; [3])	Growth Rate (HEK-293T; [4])	Growth Rate (HEK-293T; [5])	Growth Rate (HEK-293T; [6])	Growth Rate (HEK-293T; [7])	further results
NCCc1cn(S(=O)(=O)c2c(Cl)nc3sccn23)c2ccccc12.O=C(O)C(=O)O	-0.77	-0.79	-0.66	-0.5	-0.67	-0.42	-0.67	-0.31	-0.18	0.52	0.36	0.72	0.45	0.87	-0.34	0.22	0.08	0.4	0.51	0.57	Growth Rate (U2OS; [2]): 0.34; Growth Rate (U2OS; [8]): 0.57; Growth Rate (HEK-293T; [8]): 0.52
CN1CCN(c2ccc(Nc3c4ccccc4nc4ccccc34)cc2)CC1.Cl.Cl.O	-0.84	0.16	-0.56	0.17	-0.39	0.08	-0.25	0.11	0.19	-0.09	-0.02	-0.2	-0.17	-0.28	-0.94	-0.78	-0.81	-0.62	-0.61	-0.48	Growth Rate (Fibroblast; [9]): 0.35; Growth Rate (U2OS; [9]): 0.67; Growth Rate (U2OS; [2]): 0.29; Growth Rate (HEK-293T; [2]): -0.96; Growth Rate (HEK-293T; [8]): -0.52
CC(C)n1cc(-c2ccc(N3CCN(C)CC3)c(NC(=O)c3ccc(-c4ccncc4)o3)c2)cn1	-0.14	0.39	0.05	0.57	-0.06	0.81	0.03	0.94	-0.04	0.36		0.95			-0.29	-0.21	-0.04	-0.16	0.34	0.11	Growth Rate (Fibroblast; [9]): 0.57; Growth Rate (U2OS; [10]): 0.32; Growth Rate (U2OS; [9]): -1; Growth Rate (HEK-293T; [2]): -0.21; Growth Rate (HEK-293T; [8]): 0.64
N=C(N)NCCC[C@@H](NC(=O)C(c1ccccc1)c1ccccc1)C(=O)NCc1ccc(CNC(N)=O)cc1.O=C(O)C(F)(F)F.O=C(O)C(F)(F)F	0.44	0.45	0.58	0.67	0.41		0.52		0.1	0.58	0.93	0.59	0.96	0.82	1	0.8		0.83		0.98	Growth Rate (Fibroblast; [10]): -0.19; Growth Rate (U2OS; [9]): 0.75; Growth Rate (U2OS; [2]): 0.61; Growth Rate (U2OS; [8]): 0.83; Growth Rate (HEK-293T; [2]): 0.41
CSc1ccccc1N1CCN(CCCCCC(=O)NC2CCCc3ccccc32)CC1.Cl (stereo not drawn)		0.95	0.31	0.26	0.05	0.24	-0.06	0.23	0.17	0.43	0.96	0.53	0.92	0.76	-0.01	0.07	-0.09	0.16	0.15	0.29	Growth Rate (Fibroblast; [10]): 0.06; Growth Rate (U2OS; [10]): -0.43; Growth Rate (U2OS; [9]): 0.92; Growth Rate (U2OS; [8]): 0.94; Growth Rate (HEK-293T; [2]): -0.04; Growth Rate (HEK-293T; [8]): 0.17
CN(C)CCN(Cc1ccc(-c2ccc(CNCCc3ccccc3)cc2)cc1)C(=O)CCC1CCCC1.Cl.Cl	-1		-0.99		-0.96	-0.99	-0.93	-0.98	-1	-0.99	-0.81	-0.92	-0.64	-0.86	-0.93	-0.74	-0.78	-0.55	-0.67	-0.46	Growth Rate (U2OS; [2]): -0.96; Growth Rate (U2OS; [8]): -0.58; Growth Rate (HEK-293T; [2]): -0.92; Growth Rate (HEK-293T; [8]): -0.59
